From patent publication US20160375057A1, “THERAPEUTIC COMPOSITIONS AND METHODS INVOLVING CELL-PERMEABLE IRON” (priority 2015, published 2016)
Read-outs that look alike come from different tables or passages of the source.

Key:
Burkitt's lymphoma cells = test: Lymphoma cell growth in vitro, FAC versus FC (FIG. 14); format: cell-based
Protocol: FIG. 14. […]. Burkitt's lymphoma cells were treated with either ferric ammonium citrate (FAC) or ferric citrate (FC). […]

[1] = test system: A2780 ovarian cancer cells; test: Synergy of carboplatin and FAC, CCK-8 IC50 isobologram (Example 3, FIG. 3); conditions: read-out: IC50 (50% cell viability); agent alone, 48-hour treatment, CCK-8, A2780
Protocol: In these experiments, varying concentrations of the two reagents are added to tumor cells in an array format. Cytotoxicity was determined by CCK8 assay after 24 hours.
A2780 ovarian cancer cells were seeded into 96-well plates. […] Cell viability was determined by CCK-8 kit after 48-hour treatment with the drugs. […] IC50 values are shown as individual data points.

[2] = test system: MA148 ovarian cancer cells; test: Synergy of doxorubicin and FAC, CCK-8 viability, Compusyn CI/DRI (Example 5, FIG. 5, Tables 3-4); format: cell-based, Human
Protocol: FIG. 5. […] (Chou et al., 2006, Pharmacol Rev 58:621-628).
Subsequently, they were treated with different concentrations of Doxorubicin in the presence or absence of FAC 200 uM. […] Five different combinations of FAC and Doxorubicin were used in this study. […] Values below the dotted line indicate synergy.

[3] = test system: Lewis Lung Carcinoma (LLC) MATRIGEL plugs, tumor blood vessels (CD31)
Protocol: FIG. 11. […] Tumor cells were injected into groups of mice subcutaneously in […] plugs. […] Histograms show mean levels of blood vessel length and branch points.
In another aspect, this disclosure describes methods of inhibiting angiogenesis in a subject. Generally, the methods involve co-administering cell-permeable iron and an anti-angiogenic chemotherapeutic agent. […] (FIG. 7).
One million LLC cells (in PBS) were mixed with […] (Corning, Inc., Corning, N.Y.) in a 3:1 ratio and injected subcutaneously into the dorsal flanks (bilateral sites) of 6-8 week old female C57BL/6 wild-type mice. Experimental […] plugs contained 200 μM FAC. Four days later, mice were treated with either saline (negative control) or 20 mg/kg FAC (in PBS) on alternate days for two weeks. After two weeks, mice were sacrificed, tumor plugs removed and photographed, a part of the […] plugs was snap-frozen, and another part of the […] plugs was fixed in 10% neutral formalin. Frozen tumor plugs (n=5 for saline and n=7 for FAC) were sectioned (15 μm), fixed with acetone at −20° C. for 10 minutes, rehydrated, and blocked in 1% BSA. Slides were then stained with PE-conjugated anti-mouse CD31 (1:100) overnight at 4° C., washed three times with PBS, stained with FITC-conjugated anti-alpha-SMA (1:500) for one hour at room temperature and counterstained with DAPI. Two sections per tumor plug were stained. Random areas (5-20) were imaged at 10× magnification using a Nikon AZ 100M Fluorescence Macro scope and at 20× magnification using a Leica DM5500 B microscope. CD31 vessel length and branching points (nodes) were quantified by morphometric analyses of fluorescent digital images using Reindeer Games plug-in functions for Adobe Photoshop, as previously described (Wild et al., 2000, Microvac Res 59(3):368-376). CD31 positive vessels co-staining with alpha- SMA were quantified similarly to quantitate mature vessels. Data in FIG. 11 show representative images of tumor sections stained with rat anti-mouse CD31-phycoerythrin conjugate.

HUVECs = conditions: FAC 200 μM for 24 hours, complete medium, eight hours recording
Protocol: HUVECs were plated in 60 mm plates and allowed to grow and attach for 24 hours. Subsequently, one plate was treated with FAC 200 μM for 24 hours. Control and treated cells were trypsinized and 50,000 live cells were plated in 8 well (8W10E) electric cell substrate impedance sensing plate (ECIS, Applied BioPhysics, Inc., Troy, N.Y.). Cell attachment and spreading was confirmed by measuring electrical impedance. After reaching stable values of impedance in ohms, a clear wound of 250 micrometer was generated by applying elevated electrical pulse to the defined electrode. Wounded area is clear of cells and confirmed by a decrease in impedance. Cell movement into the wounded areas was recorded for eight hours at 15 minute intervals. Cell migration into the wounded area increases impedance and was continually recorded over a period of eight hours (FIG. 10). Error bars represent standard deviation (SD).

[4] = test system: MA148 ovarian cancer cells
Protocol: CI, combination index. CI<1.0 indicates synergy. Compusyn program (ComboSyn, Inc., Paramus, N.J.) was used to calculate CI and generate isobologram.
In these experiments, varying concentrations of the two reagents are added to tumor cells in an array format. Cytotoxicity was determined by CCK8 assay after 24 hours. […] An antagonistic effect (competition) would result in hyperbolic (bell-shaped) curve above the dotted line (additive effect).
Cells were allowed to attach for 24 hours after which they were pretreated with FAC 200 μM for 24 hours. […] After 24 hours, CCK-8 (10 μl) was added to each well and one hour later, absorbance at 450 nm was measured. Viability was calculated as percentage of the cells grown in complete medium (FIG. 4). […] Isobologram was generated using Compusyn program (ComboSyn, Inc., Paramus, N.J.). Dotted line is the predicted additive effect between two compounds. Values below the dotted line indicate synergy.

[5] = test system: MDA-MB-231-luc triple negative breast cancer cell line; conditions: 100 μM FAC alone without radiation, five days
Protocol: FIG. 12. […] Triple negative breast cancer cell line, MDA-MB-231-luc, was exposed to different doses of ionizing radiation (X-Ray) in the presence and absence of 100 μM FAC. Sets of cultures seeded at the same cell density were kept as a control for radiation-induced cell death.
500,000 highly metastatic human breast cancer cells (MDA-MB-231-luc, Caliper Life Sciences, PerkinElmer Inc., Hopkinton, Mass.) were seeded into six-well plates in RPMI-1640 medium (3.0 ml) supplemented with 10% fetal bovine serum and antibiotics. After four hours to allow cell attachment, sets of cultures were treated with 100 μM FAC. Equal volume of complete medium was added to control cultures. One of the plates was kept aside without any radiation. Other sets of cultures were exposed to ionizing radiation (X-ray) of varying doses. After radiation, cells were cultures for five days. Live cells were stained with Hoechest 33342 dye and photographed under UV light.

[6] = test system: Burkitt's B-lymphoma cells; conditions: 14 days, 2 cells/well-50 cells/well
Protocol: FIG. 13. […] Burkitt's B-lymphoma cells were treated with FAC at different concentrations. Treated cells grown for 14 days at different cell density (2 cells/well-50 cells/well).

[7] = test system: human umbilical vein endothelial cells (HUVEC); conditions: 100 ng/ml VEGF-A
Protocol: Human umbilical vein endothelial cells (HUVECs; Neuromics, Edina, Minn.) and HUVECs immortalized with h-TERT (ATCC CRL-4053, ATCC, Manassas, Va.) were cultured in endothelial cell growth media EGM-2 (Lonza, Basel, Switzerland). Lewis Lung Carcinoma (LLC) cells (ATCC CRL-1642, ATCC, Manassas, Va.) were grown in RPMI 1640 medium supplemented with 10% FBS, 1% glutamine, 1% penicillin-streptomycin and 1% sodium pyruvate. Female C57BL/6 wild-type (WT) mice were used as recipients (bred at the University of Minnesota specific pathogen free environment animal facility). All animals were sex and aged matched (6-8 weeks). All experimental protocols were approved by the University of Minnesota Institutional Animal Care and Use Committee. VEGF-A165 was purchased from R & D Systems (Minneapolis, Minn.). GELTREX Low-growth factor basement membrane matrix (Thermo Fisher Scientific, Inc., Waltham Mass.) was used for in vitro tube formation assay.
HUVEC were plated in 0.2% gelatin coated 96-well plates and allowed to attach for 24 hours. Subsequently they were starved in EBM-2 with 2% serum overnight. […] Cell viability was determined by CCK-8 assay (Dojindo Molecular Technologies, Inc., Rockville, Md.). VEGF-A induced effect was calculated by subtracting negative control values from all experimental groups. Proliferation was then calculated as percentage of the positive control.

[8] = 20 mg/kg FAC on alternate days for two weeks

ferric citrate [FC]
inhibition of lymphoma cell growth (Burkitt's lymphoma cells): effective

N.N.O=C([O-])C1(C(=O)[O-])CCC1.[Pt+2] [carboplatin, reference compound]
IC50 [1]: 150 µM

ferric ammonium citrate [FAC]
Dose FAC (FAC alone for this Fa) ([2]; Fa 0.88386): 2644.47
Dose FAC (FAC alone for this Fa) ([2]; Fa 0.95196): 6060.28
total vessel length [3, 8]: inhibited
vessel branches [3, 8]: inhibited
CD31 positive vessel density ([3]; systemic injection of FAC, compared to mice receiving saline): significantly reduced
inhibition of lymphoma cell growth (Burkitt's lymphoma cells): effective
potency relative to ferric citrate at inhibiting lymphoma cell growth (Burkitt's lymphoma cells): more potent than ferric citrate (FC)
endothelial cell migration (electrical impedance, real time) (HUVECs): inhibits
Dose FAC (FAC alone for this Fa) ([4]; Fa 0.24288): 121.297
Dose FAC (FAC alone for this Fa) ([4]; Fa 0.24359): 121.991
Dose FAC (FAC alone for this Fa) ([4]; Fa 0.28253): 164.074
Dose FAC (FAC alone for this Fa) ([4]; Fa 0.29392): 178.068
Dose FAC (FAC alone for this Fa) ([4]; Fa 0.35541): 269.444
Dose FAC (FAC alone for this Fa) ([4]; Fa 0.36087): 279.043
Dose FAC (FAC alone for this Fa) ([4]; Fa 0.49929): 645.092
Dose FAC (FAC alone for this Fa) ([4]; Fa 0.61254): 1272.12
Dose FAC (FAC alone for this Fa) ([4]; Fa 0.66880): 1824.65
Dose FAC (FAC alone for this Fa) ([4]; Fa 0.87322): 11126.4
cell viability [5]: significant decrease in cell viability
IC50 [1]: 200 µM
colony formation (clonogenic growth) [6]: completely inhibited
inhibition of VEGF-A-induced cell proliferation ([7]; 50 μM FAC, 48 hours): complete inhibition
inhibition of VEGF-A-induced endothelial cell proliferation ([7]; 200 μM FAC, 24 hours): completely inhibited

COc1cccc2c1C(=O)c1c(O)c3c(c(O)c1C2=O)C[C@@](O)(C(=O)CO)C[C@@H]3O[C@H]1C[C@H](N)[C@H](O)[C@H](C)O1 [DOX, Doxorubicin, reference compound]
Dose DOX (DOX alone for this Fa) ([2]; Fa 0.88386): 47050.0
Dose DOX (DOX alone for this Fa) ([2]; Fa 0.95196): 178095.
